Data reported in patent US20120052126A1, “Nanoemulsions Containing Antioxidants And Other Health-Promoting Compounds” (priority 2010, published 2012).

Test system: MDA production (lipid peroxidation) in brain tissue
Assay: Malonaldehyde (MDA) production in mouse brain after oral administration and sleep fragmentation
Assay type: in vivo, mice
Details: gavage once a day for 120 days, then 15 days sleep fragmentation, brain cortex, MDA expressed as fold increase
Source text: Male adult mice were obtained having either the human APOE ε4 allele (targeted replacement, n=42) or wild type allele (n=42). […] Administration was by gavage once a day for 120 days. After this period, the subject mice underwent sleep fragmentation (SF) for 15 days. The SF device exposes freely behaving mice in a standard laboratory cage to intermittent tactile stimulation utilizing a motorized mechanical device. Tactile stimulation is produced by a horizontal bar powered by an electrical motor system, which sweeps just above the cage floor from side to side at intermittent functioning mode (2 min). During the […] motion, mice may need to step over the […] passes. Chronic SF may induce inflammatory responses and oxidative stress. After 15 days of SF, the mice were sacrificed and the brain dissected out for MDA and 8-OHdG assays, which are produced by the brain in response to oxidative stress and inflammatory events. MDA production is an indicator of lipid peroxidation. After the mice were sacrificed, an LPO-586 kit (OxisResearch, Portland Oreg.) was used according to the manufacturer's instructions to measure MDA levels in the brain tissue. The animals were anesthetized with CO2 inhalation then decapitated, and the cortex were dissected, snap frozen in liquid nitrogen, and stored at -80° C. until assay the following day. Neuronal tissues were homogenized in 20 mM phosphate buffer (pH 7.4) containing 0.5 mM butylated hydroxytoluene to prevent sample oxidation. […] The samples were then centrifuged and clear supernatants measured at 586 nm. MDA production was then calculated per the standard curve according to the manufacturer's instructions. The relative levels of lipid peroxidation were expressed in fold increase in MDA production.

Structure (SMILES)	MDA production, Diff of Means (MDA-APOE ε4 allele mice (human APOE ε4 targeted replacement))	MDA production, Diff of Means (MDA-Wild Type mice)
O=C(O)CCCCC1CCSS1 (stereo not drawn) [lipoic acid (SW), lipoic acid]	0.663	0.46
Cc1c(C)c2c(c(C)c1O)CC[C@@](C)(CCC[C@H](C)CCC[C@H](C)CCCC(C)C)O2 [vitamin E (SW), vitamin E]	–	0.489
